Results on two compounds are retold here after patent publication US20250186503A1, “METHODS AND COMBINATIONS FOR TREATMENT AND T CELL MODULATION” (Juno Therapeutics, Inc., priority 2018, published 2025).

One series concerns Nr4a1 (Nur77) reporter. The series is described as follows: CAR signaling in Jurkat Nur77 reporter cell line. Type of series: cell-based. The conditions noted are these: anti-CD19 CAR or anti-ROR1 CAR; up to 6 hours. The text has this:
Cells of a reporter cell line were transduced using lentiviral vectors encoding the anti-CD19 CAR described in Example 14 or an anti-ROR1 CAR were introduced into cells of a Jurkat reporter cell line to assess CAR signaling in the presence of CAR stimulation. The anti-ROR1 CAR contained an anti-ROR1 scFv derived from a murine antibody, an immunoglobulin-derived spacer, a transmembrane domain derived from CD28, a costimulatory region derived from 4-1BB, and a CD3-zeta intracellular signaling domain. The Jurkat reporter cell lines contained a red fluorescent protein inserted by knock-ininto the endogenous Nr4a1 (Nur77) gene.

For series [1] the following is noted: given for five days followed by a two day rest period (5/7 days), subjects with DLBCL; cited from earlier work.
For a further series, the system named is RPMI-8226. Put plainly: 3D myeloma model (reconstructed bone marrow embedded with RPMI-8226). Type of series: cell-based, human. The conditions noted are these: 1.0 μM. The source says:
To assess cell function in the context of a three-dimensional (3-D) human BCMA-expressing tissue microenvironment, a reconstructed bone marrow (rBone™) (z[…], San Jose, CA) was embedded with BCMA-expressing RPMI-8226.
After 2 or 7 days, cells were isolated and assessed by flow cytometry for surface expression of CD3, CD25, CD4, and CD8.

In a further series the test system is anti-CD19 CAR+ T cells. Put plainly: Expansion of anti-CD19 CAR+ T cells following serial restimulation with irradiated K562-CD19 cells. Type of series: cell-based, human. The conditions noted are these: 1 μM, 4 rounds of stimulation, 12 days, two donors. The protocol:
The ability of anti-CD19 CAR+ T cells to expand ex vivo following repeated stimulations was assessed using methods substantially as described in Example 2. […] For each donor, cells were harvested every 3-5 days from each experimental condition in the wells and counted, and restimulated with new target cells using the same culture conditions after resetting cell number to initial seeding density for each round. A total of 4 rounds of stimulation during a 12 day culture period were carried out. For each round of stimulation, the total number of cells was determined, and the results were depicted as the fold-change of cell number after stimulation (FIG. 17A) or number of doublings compared to initial number (FIG. 17B).

For a further series, the system named is anti-BCMA CAR T cells. The series is described as follows: Cytokine production of anti-BCMA CAR T cells at low, medium and high BCMA bead stimulation. The series is classed as cell-based, human. The protocol: In another study, recombinant human BCMA-conjugated beads were used to stimulate CAR T cells at various concentratons to titrate the magnitude of stimulation, either low (5 μg/mL), medium (50 μg/mL), and high (200 μg/mL) stimulation.

The test system of series [2] is K562 cells transduced to express CD19. The series is described as follows: Cytolytic activity of anti-CD19 CAR+ T cells against K562-CD19 cells. The settings on record: 1-5000 nM, E:T 2.5:1, about 120 hours.
The next series relates to OPM-2. Put plainly: Cytolytic activity of anti-BCMA CAR T cells against OPM-2 target cells. Type of series: cell-based, human. Here is the method:
[…]. The OPM-2 cells were labeled with NucLight Red (NLR) to permit tracking of target cells by microscopy substantially as described above. […] […].
[…]. Cytolytic activity was measured by loss of red fluorescent cells. […].

`Cc1nc2cccc(N)c2c(=O)n1C1CCC(=O)NC1=O` (centres unmarked) [Compound 1, 3-(5-amino-2-methyl-4-oxo-4H-quinazolin-3-yl)-piperidine-2,6-dione]: the “Nur77 reporter signal following CAR-specific stimulation” value with Nr4a1 (Nur77) reporter is on record as “increased”. Besides, in series [1], the “maximum tolerated dose (MTD)” value is reported as 4 mg.
Consider `Nc1cccc2c1CN(C1CCC(=O)NC1=O)C2=O` (centres unmarked) [lenalidomide, 3-(4-amino-1-oxo-1,3-dihydro-2H-isoindol-2-yl)piperidine-2,6-dione], for which the “CD25+ expression in CD4+ and CD8+ T cell populations” value in the series with RPMI-8226 is reported as “increase”. Further, the “total number of CD3+ cells at day 7” value with RPMI-8226 (cultures with anti-BCMA CAR+ T cells) was “increase”. Further, in the series on anti-CD19 CAR+ T cells, the “cell expansion of anti-CD19 CAR+ T cells” value is on record as “no change or only a minor effect”. For the same compound, the “percentage of IFN-γ+ and TNF-α+ intracellular staining” value with anti-BCMA CAR T cells (0.1 or 1.0 μM, all stimulation levels, CD4+ and CD8+ CAR T cells) was “increased”. Moreover, the “percentage of IL-2+ CAR+ T cells” value with anti-BCMA CAR T cells (5-μg stimulation) is recorded as “increasing”; in the series with anti-BCMA CAR T cells (50-μg and 200-μg stimulation), “decreasing”. In the series on anti-BCMA CAR T cells (absence of stimulation), the “CAR T cytokine production” value was “no effect”. Further, the IFN-γ secreted result in the series on anti-BCMA CAR T cells (medium stimulation (50 μg/mL BCMA beads), 24 hours) is “donor-dependent increases”. Also, the CAR-mediated cytolytic activity entry in series [2] is reported as “reduced”. The “cytolytic activity of anti-BCMA CAR+ T cells against OPM-2” value in the series on OPM-2 (0.01-10 μM, E:T 1:1, 7 days, four donors, dose-dependent) is on record as “enhance”. Besides, in the series on OPM-2 (healthy donor and pomalidomide-refractory multiple myeloma patient CAR T, 0.01-10 μM), the “antigen-specific anti-BCMA CAR-T cytolytic activity and cytokine production” value was “increased”. Also, the “anti-BCMA CAR T cytolytic activity against OPM-2” value in the series on OPM-2 (three healthy donors and one IMiD-refractory patient, all donors) is “Increased”.
